What was measured:
[1] = Inhibition of Hepatitis C virus genotype 6a replicon NS5A transfected in human HuH7 cells assessed as decrease in replication of viral replicon after 4 days by luciferase reporter gene assay; type: cell-based, Hepatitis C virus subtype 6a; details: Huh-7, 96 h
[2] = Inhibition of Hepatitis C virus genotype 1a H77 replicon NS5A transfected in human HuH7 cells assessed as decrease in replication of viral replicon after 4 days by luciferase reporter gene assay; type: cell-based, Hepatitis C virus (isolate H77); details: Huh-7, 96 h
[3] = Inhibition of Hepatitis C virus genotype 4a replicon NS5A transfected in human HuH7 cells assessed as decrease in replication of viral replicon after 4 days by luciferase reporter gene assay; type: cell-based, Hepatitis C virus subtype 4a; details: Huh-7, 96 h
[4] = Inhibition of Hepatitis C virus genotype 1b Con1 replicon NS5A transfected in human HuH7 cells assessed as decrease in replication of viral replicon in presence of 40% human plasma after 4 days by luciferase reporter gene assay; type: cell-based, Hepatitis C virus (isolate Con1); details: Huh-7, Plasma, 96 h
[5] = Inhibition of Hepatitis C virus genotype 1a H77 replicon NS5A transfected in human HuH7 cells assessed as decrease in replication of viral replicon in presence of 40% human plasma after 4 days by luciferase reporter gene assay; type: cell-based, Hepatitis C virus (isolate H77); details: Huh-7, Plasma, 96 h
[6] = Inhibition of Hepatitis C virus genotype 3a replicon NS5A transfected in human HuH7 cells assessed as decrease in replication of viral replicon after 4 days by luciferase reporter gene assay; type: cell-based, Hepatitis C virus subtype 3a; details: Huh-7, 96 h
[7] = Inhibition of Hepatitis C virus genotype 2b replicon NS5A transfected in human HuH7 cells assessed as decrease in replication of viral replicon after 4 days by luciferase reporter gene assay; type: cell-based, Hepatitis C virus subtype 2b; details: Huh-7, 96 h
[8] = Inhibition of Hepatitis C virus genotype 2a replicon NS5A transfected in human HuH7 cells assessed as decrease in replication of viral replicon after 4 days by luciferase reporter gene assay; type: cell-based, Hepatitis C virus subtype 2a; details: Huh-7, 96 h
[9] = Inhibition of Hepatitis C virus genotype 1b Con1 replicon NS5A transfected in human HuH7 cells assessed as decrease in replication of viral replicon after 4 days by luciferase reporter gene assay; type: cell-based, Hepatitis C virus (isolate Con1); details: Huh-7, 96 h
[10] = AUC in CD1 mouse at 15 mg/kg, po after 0.25 to 24 hrs; type: ADME, organism-based; parameters: time lower 0.25 hr, dose 15 mg/kg, time upper 24 hr, route oral; details: in vivo
[11] = AUC in CD1 mouse at 3 mg/kg, po after 0.25 to 24 hrs; type: ADME, organism-based; parameters: time upper 24 hr, dose 3 mg/kg, time lower 0.25 hr, route oral; details: in vivo
[12] = Half life in CD1 mouse at 15 mg/kg, po after 0.25 to 24 hrs; type: ADME, organism-based; details: in vivo
[13] = Cmax in CD1 mouse at 3 mg/kg, po after 0.25 to 24 hrs; type: ADME, organism-based; parameters: dose 3 mg/kg, route oral; details: in vivo
[14] = Cmax in CD1 mouse at 15 mg/kg, po after 0.25 to 24 hrs; type: ADME, organism-based; parameters: dose 15 mg/kg, route oral; details: in vivo
[15] = Half life in CD1 mouse at 3 mg/kg, po after 0.25 to 24 hrs; type: ADME, organism-based; details: in vivo
[16] = system: Hepatitis C virus (isolate H77); assay: Resistance ratio of EC50 for Hepatitis C virus genotype 1a H77 replicon NS5A M28T mutant to EC50 for Hepatitis C virus genotype 1a H77 replicon NS5A
[17] = Half life in beagle dog at 2.5 mg/kg, po administered via gavage after 0.25 to 24 hrs; type: ADME, organism-based, Canis lupus familiaris; details: in vivo
[18] = AUC in beagle dog at 2.5 mg/kg, po administered via gavage after 0.25 to 24 hrs; type: ADME, organism-based, Canis lupus familiaris; parameters: dose 2.5 mg/kg, time 0.25-24 hr, route oral; details: in vivo
[19] = Half life in Sprague-Dawley rat at 3 mg/kg, po administered via gavage after 0.25 to 24 hrs; type: ADME, organism-based; details: in vivo
[20] = system: Hepatitis C virus (isolate H77); assay: Resistance ratio of EC50 for Hepatitis C virus genotype 1a H77 replicon NS5A Y93C mutant to EC50 for Hepatitis C virus genotype 1a H77 replicon NS5A
[21] = Cmax in CD1 mouse at 30 mg/kg, po after 0.25 to 24 hrs; type: ADME, organism-based; parameters: dose 30 mg/kg, route oral; details: in vivo
[22] = Cmax in beagle dog at 2.5 mg/kg, po administered via gavage after 0.25 to 24 hrs; type: ADME, organism-based, Canis lupus familiaris; parameters: dose 2.5 mg/kg, route oral; details: in vivo
[23] = system: Hepatitis C virus (isolate H77); assay: Resistance ratio of EC50 for Hepatitis C virus genotype 1a H77 replicon NS5A Q30R mutant to EC50 for Hepatitis C virus genotype 1a H77 replicon NS5A
[24] = Cmax in Sprague-Dawley rat at 3 mg/kg, po administered via gavage after 0.25 to 24 hrs; type: ADME, organism-based; parameters: dose 3 mg/kg, route oral; details: in vivo
[25] = Inhibition of Hepatitis C virus genotype 1a H77 replicon NS5A Q30R mutant transfected in human HuH7 cells assessed as decrease in replication of viral replicon after 4 days by luciferase reporter gene assay; type: cell-based, Hepatitis C virus (isolate H77); details: Huh-7, 96 h
[26] = AUC in CD1 mouse at 30 mg/kg, po after 0.25 to 24 hrs; type: ADME, organism-based; parameters: time lower 0.25 hr, dose 30 mg/kg, time upper 24 hr, route oral; details: in vivo
[27] = system: Hepatitis C virus (isolate H77); assay: Resistance ratio of EC50 for Hepatitis C virus genotype 1a H77 replicon NS5A Y93H mutant to EC50 for Hepatitis C virus genotype 1a H77 replicon NS5A
[28] = AUC in Sprague-Dawley rat at 3 mg/kg, po administered via gavage after 0.25 to 24 hrs; type: ADME, organism-based; parameters: time upper 24 hr, dose 3 mg/kg, time lower 0.25 hr, route oral; details: in vivo
[29] = Half life in CD1 mouse at 30 mg/kg, po after 0.25 to 24 hrs; type: ADME, organism-based; details: in vivo
[30] = system: Hepatitis C virus (isolate H77); assay: Ratio of EC50 for Hepatitis C virus genotype 1a H77 replicon NS5A in presence of 40% human plasma to EC50 for Hepatitis C virus genotype 1a H77 replicon NS5A in absence of 40% human plasma
[31] = Inhibition of Hepatitis C virus genotype 1a H77 replicon NS5A M28T mutant transfected in human HuH7 cells assessed as decrease in replication of viral replicon after 4 days by luciferase reporter gene assay; type: cell-based, Hepatitis C virus (isolate H77); details: Huh-7, 96 h
[32] = system: Hepatitis C virus (isolate Con1); assay: Ratio of EC50 for Hepatitis C virus genotype 1b Con1 replicon NS5A in presence of 40% human plasma to EC50 for Hepatitis C virus genotype 1b Con1 replicon NS5A in absence of 40% human plasma
[33] = Oral bioavailability in CD1 mouse at 3 mg/kg after 0.25 to 24 hrs; type: ADME, organism-based; details: in vivo
[34] = Plasma clearance in CD1 mouse at 3 mg/kg, iv after 0.1 to 24 hrs; type: ADME, organism-based
[35] = Half life in CD1 mouse at 3 mg/kg, iv after 0.1 to 24 hrs; type: ADME, organism-based; details: in vivo

Compound	EC50 [1]	EC50 [2]	EC50 [3]	EC50 [4]	EC50 [5]	EC50 [6]	EC50 [7]	EC50 [8]	EC50 [9]	AUC [11]	Cmax [13]	half-life [15]	Ratio EC50 [16]	Ratio EC50 [20]	Ratio EC50 [23]	EC50 [25]	Ratio EC50 [27]	other results
COC(=O)N[C@H](C(=O)N1CCC[C@H]1c1nc2c(F)c([C@H]3CC[C@H](c4ccc5[nH]c([C@@H]6CCCN6C(=O)[C@@H](NC(=O)OC)C(C)C)nc5c4F)N3c3ccc(C(C)(C)C)cc3)ccc2[nH]1)C(C)C	0.114 nM	0.022 nM	0.007 nM	0.211 nM	0.823 nM	0.02 nM	0.009 nM	0.612 nM	0.01 nM									
COC(=O)N[C@H](C(=O)N1CCC[C@H]1c1nc2c(Cl)c([C@H]3CC[C@H](c4ccc5[nH]c([C@@H]6CCCN6C(=O)[C@@H](NC(=O)OC)C(C)C)nc5c4Cl)N3c3ccc(C(C)(C)C)cc3)ccc2[nH]1)C(C)C	0.59 nM	0.034 nM	0.01 nM	0.731 nM	1.85 nM	0.037 nM	0.038 nM	1.83 nM	0.013 nM									
COC(=O)N[C@H](C(=O)N1CCC[C@H]1c1nc2cc([C@H]3CC[C@H](c4cc5[nH]c([C@@H]6CCCN6C(=O)[C@@H](NC(=O)OC)C(C)C)nc5cc4F)N3c3ccc(C(C)(C)C)cc3)c(F)cc2[nH]1)C(C)C										5790 ng·h/mL	630 ng/mL	4.4 h						AUC [10]: 36200 ng·h/mL; half-life [12]: 4.8 h; Cmax [14]: 3180 ng/mL
COC(=O)N[C@H](C(=O)N1CCC[C@H]1c1nc2cc([C@H]3CC[C@H](c4cc5nc([C@@H]6CCCN6C(=O)[C@@H](NC(=O)OC)C(C)C)[nH]c5cc4F)N3c3cc(F)c(N4CCCCC4)c(F)c3)c(F)cc2[nH]1)C(C)C	0.007 nM	0.003 to 0.004 nM	0.007 nM	0.153 nM	0.096 nM	0.006 nM	0.004 nM	0.012 nM	0.007 nM	4410 ng·h/mL	370 ng/mL	6.1 h	2	4	3	0.008 nM	27	half-life [17]: 5.5 h; AUC [18]: 17200 ng·h/mL; half-life [19]: 5.8 h; Cmax [21]: 3390 ng/mL; Cmax [22]: 1380 ng/mL; Cmax [24]: 190 ng/mL; AUC [26]: 48200 ng·h/mL; AUC [28]: 2880 ng·h/mL; half-life [29]: 5.5 h
COC(=O)N[C@H](C(=O)N1CCC[C@H]1c1nc2cc([C@H]3CC[C@H](c4cc5nc([C@@H]6CCCN6C(=O)[C@@H](NC(=O)OC)C(C)C)[nH]c5cc4F)N3c3ccc(C(C)(C)C)cc3)c(F)cc2[nH]1)C(C)C	0.015 nM	0.002 to 0.008 nM	0.008 nM	0.096 nM	0.216 nM	0.008 nM	0.009 nM	0.098 nM	0.007 nM				2	3	3	0.005 nM	30	Ratio EC50 [30]: 15 to 30; EC50 [31]: 0.004 nM; Ratio EC50 [32]: 15 to 30
COC(=O)N[C@H](C(=O)N1CCC[C@H]1c1nc2cc([C@H]3CC[C@H](c4ccc5[nH]c([C@@H]6CCCN6C(=O)[C@@H](NC(=O)OC)C(C)C)nc5c4)N3c3cc(F)c(N4CCCCC4)c(F)c3)ccc2[nH]1)C(C)C	0.007 nM	0.003 to 0.006 nM	0.005 nM	0.261 nM	0.154 nM	0.009 nM	0.007 nM	0.013 nM	0.006 nM	1800 ng·h/mL	220 ng/mL	3.9 h	3	6	8	0.025 nM	163	half-life [17]: 2.8 h; AUC [18]: 1230 ng·h/mL; AUC [10]: 9250 ng·h/mL; Cmax [22]: 200 ng/mL; Cmax [24]: 50 ng/mL; half-life [12]: 3.2 h; EC50 [31]: 0.01 nM; Cmax [14]: 930 ng/mL; AUC [28]: 30 ng·h/mL
COC(=O)N[C@H](C(=O)N1CCC[C@H]1c1nc2c(C)c([C@H]3CC[C@H](c4ccc5[nH]c([C@@H]6CCCN6C(=O)[C@@H](NC(=O)OC)C(C)C)nc5c4C)N3c3ccc(C(C)(C)C)cc3)ccc2[nH]1)C(C)C	0.132 nM	0.01 nM	0.005 nM	0.557 nM	0.52 nM	0.02 nM	0.025 nM	0.594 nM	0.01 nM									
COC(=O)N[C@H](C(=O)N1CCC[C@H]1C(=O)Nc1ccc([C@H]2CC[C@@H](c3ccc(NC(=O)[C@@H]4CCCN4C(=O)[C@@H](NC(=O)OC)C(C)C)cc3)N2c2ccc(C(C)(C)C)cc2)cc1)C(C)C										11000 ng·h/mL	570 ng/mL							bioavailability [33]: 42%; clearance [34]: 1.83 mL/min/kg; half-life [35]: 11 h

Source: ChEMBL document CHEMBL3864160, “Discovery of fluorobenzimidazole HCV NS5A inhibitors” (Bioorg Med Chem Lett, 2016)
